Test: xn = mol fraction of the nth substance listed
Settings: 100 kPa, Liquid, Vibrating tube method

CC(=O)[O-].CCn1cc[n+](C)c1 [1-ethyl-3-methylimidazolium acetate] + C[S+](C)[O-]
mass density [kg/m3]
Settings	293.15 K	303.15 K	313.15 K	323.15 K	333.15 K	343.15 K	353.15 K	363.15 K	373.15 K
x2 = 0	1101.7	1095.6	1089.6	1083.7	1077.7	1071.8	1065.9	1060	1054.2
x2 = 0.053	1102.4	1096.3	1090.3	1084.2	1078.1	1072	1066.1	1060.1	1054.1
x2 = 0.103	1103	1096.9	1090.8	1084.5	1078.3	1072.2	1066.1	1060	1054
x2 = 0.196	1103.8	1097.5	1091.2	1084.8	1078.4	1072.2	1065.9	1059.8	1053.6
x2 = 0.301	1104.9	1098.4	1091.8	1085.2	1078.7	1072.1	1065.6	1059.3	1052.9
x2 = 0.401	1105.8	1099	1092.2	1085.3	1078.7	1071.8	1065.2	1058.4	1051.8
x2 = 0.501	1106.6	1099.5	1092.4	1085.4	1078.3	1071.3	1064.4	1057.5	1050.6
x2 = 0.6	1107.4	1099.9	1092.5	1085.1	1077.8	1070.4	1063.1	1055.8	1048.5
x2 = 0.686	1107.6	1099.9	1092	1084.3	1076.6	1068.9	1061.2	1053.6	1046
x2 = 0.802	1107.2	1098.8	1090.4	1082	1073.7	1065.4	1057.1	1048.8	1040.4
x2 = 0.899	1105.4	1096.3	1087.3	1078.3	1069.3	1060.3	1051.3	1042.3	1033.2

Source: the NIST ThermoML archive (doi:10.1021/acs.jced.8b01048)
